Laboratory results reported in patent US9734282B2, “Biological dataset profiling of cardiovascular disease and cardiovascular inflammation” (DISCOVERX CORPORATION, priority 2005, dated 2017).

Key:
[1] = test system: Peripheral Blood Mononuclear Cells + Endothelial Cells; experiment: BioMAP SAg system (PBMC + endothelial cells, TCR), cell-based ELISA; design: species or system human; conditions: for CD69 level / E-selectin level / IL-8 level: protein level drug-treated versus buffer control, 24 h
Experimental: (§1) Human umbilical vein endothelial cells (HUVEC) were cultured according to standard methods, and plated into microtiter plates. Peripheral blood mononuclear cells (PBMC) were prepared from buffy coats from normal human donors according to standard methods. Experiments were performed by culturing HUVEC in microtiter plates in the presence of cytokines (IL-1b, 1 ng/ml; TNF-a, 5 ng/ml; and IFN-g, 100 ng/ml, or IL-4, 5 ng/ml and histamine, […]), activators (SAg, 20 ng/ml or LPS, 0.2 ng/ml), and/or PBMC (7.5×10^4 cells/well) for 24 h. Compounds were tested at the indicated concentrations. Compounds were prepared in the solvent as directed, added 1 hr before stimulation of the cells, and were present during the whole 24 hr stimulation period.
(§2) The levels of readout parameters (proteins) were measured by cell-based ELISA. Briefly, microtiter plates are treated, blocked, and then incubated with primary antibodies or isotype control antibodies (0.01-0.5 mg/ml) for 1 hr. After washing, plates were incubated with a peroxidase-conjugated anti-mouse IgG secondary antibody or a biotin-conjugated anti-mouse IgG antibody for 1 hr followed by streptavidin-HRP for 30 min. Plates were washed and developed with TMB substrate and the absorbance (OD) was read at 450 nm (subtracting the background absorbance at 650 nm). Other readout parameters include: total protein levels (SRB assay), measuring the viability of peripheral blood mononuclear cells (incorporation of propidium iodide); and microscopic visualization. SRB was performed by staining cells with 0.1% sulforhodamine B after fixation with 10% TCA, and reading wells at 560 nm. PBMC viability was assessed by adding propidium iodide (10 mg/ml) to PBMC that had been cultured for 24 hours in the presence of activators and measuring the percentage of cells that incorporated dye by flow cytometry after 10 minutes.
(§3) For data analysis, mean OD values (or other measurements) for each parameter were calculated from triplicate samples per experiment. The mean value obtained for each parameter in a treated sample was then divided by the mean value from an appropriate control to generate a ratio. All ratios were then log 10 transformed. An average or “trusted” profile was created by averaging 2 repeats of the experiment for each compound and concentration combination. 99% prediction envelopes (grey shading in Figures) were calculated for historical controls.

[2] = test system: Primary Human Endothelial Cells (HUVEC); experiment: BioMAP 3C system (endothelial cells + IL-1β + TNF-α + IFN-γ), cell-based ELISA; conditions: for uPAR level: protein level drug-treated versus buffer control, 24 h
Experimental: Human umbilical vein endothelial cells (HUVEC) were cultured according to standard methods, and plated into microtiter plates. Peripheral blood mononuclear cells (PBMC) were prepared from buffy coats from normal human donors according to standard methods. Experiments were performed by culturing HUVEC in microtiter plates in the presence of cytokines (IL-1b, 1 ng/ml; TNF-a, 5 ng/ml; and IFN-g, 100 ng/ml, or IL-4, 5 ng/ml and histamine, […]), activators (SAg, 20 ng/ml or LPS, 0.2 ng/ml), and/or PBMC (7.5×10^4 cells/well) for 24 h. Compounds were tested at the indicated concentrations. Compounds were prepared in the solvent as directed, added 1 hr before stimulation of the cells, and were present during the whole 24 hr stimulation period. The levels of readout parameters (proteins) were measured by cell-based ELISA. Briefly, microtiter plates are treated, blocked, and then incubated with primary antibodies or isotype control antibodies (0.01-0.5 mg/ml) for 1 hr. After washing, plates were incubated with a peroxidase-conjugated anti-mouse IgG secondary antibody or a biotin-conjugated anti-mouse IgG antibody for 1 hr followed by streptavidin-HRP for 30 min. Plates were washed and developed with TMB substrate and the absorbance (OD) was read at 450 nm (subtracting the background absorbance at 650 nm). Other readout parameters include: total protein levels (SRB assay), measuring the viability of peripheral blood mononuclear cells (incorporation of propidium iodide); and microscopic visualization. SRB was performed by staining cells with 0.1% sulforhodamine B after fixation with 10% TCA, and reading wells at 560 nm. PBMC viability was assessed by adding propidium iodide (10 mg/ml) to PBMC that had been cultured for 24 hours in the presence of activators and measuring the percentage of cells that incorporated dye by flow cytometry after 10 minutes. For data analysis, mean OD values (or other measurements) for each parameter were calculated from triplicate samples per experiment. […] 99% prediction envelopes (grey shading in Figures) were calculated for historical controls.

[3] = test system: HUVEC and HUVEC + PBMC systems; experiment: 4 system BioMAP activity profile (3C, 4H, LPS, SAg); assay type: cell-based, human; conditions: data not shown
Experimental: as §1, §2
For data analysis, mean OD values (or other measurements) for each parameter were calculated from triplicate samples per experiment. […] 99% prediction envelopes (grey shading in Figures) were calculated for historical controls.

[4] = test system: Primary Human Endothelial Cells (HUVEC); experiment: BioMAP 4H system (endothelial cells + IL-4 + histamine), cell-based ELISA; conditions: protein level drug-treated versus buffer control, 24 h
Experimental: as §1, §2, §3

[5] = test system: Peripheral Blood Mononuclear Cells + Endothelial Cells; experiment: BioMAP LPS system (PBMC + endothelial cells, TLR4), cell-based ELISA; design: species or system human
Experimental: Human umbilical vein endothelial cells (HUVEC) were cultured according to standard methods, and plated into microtiter plates. Peripheral blood mononuclear cells (PBMC) were prepared from buffy coats from normal human donors according to standard methods. Experiments were performed by culturing HUVEC in microtiter plates in the presence of cytokines (IL-1b, 1 ng/ml; TNF-a, 5 ng/ml; and IFN-g, 100 ng/ml, or IL-4, 5 ng/ml and histamine, […]), activators (SAg, 20 ng/ml or LPS, 0.2 ng/ml), and/or PBMC (7.5×10^4 cells/well) for 24 h. Compounds were tested at the indicated concentrations. Compounds were prepared in the solvent as directed, added 1 hr before stimulation of the cells, and were present during the whole 24 hr stimulation period. The levels of readout parameters (proteins) were measured by cell-based ELISA. Briefly, microtiter plates are treated, blocked, and then incubated with primary antibodies or isotype control antibodies (0.01-0.5 mg/ml) for 1 hr. After washing, plates were incubated with a peroxidase-conjugated anti-mouse IgG secondary antibody or a biotin-conjugated anti-mouse IgG antibody for 1 hr followed by streptavidin-HRP for 30 min. Plates were washed and developed with TMB substrate and the absorbance (OD) was read at 450 nm (subtracting the background absorbance at 650 nm). Other readout parameters include: total protein levels (SRB assay), measuring the viability of peripheral blood mononuclear cells (incorporation of propidium iodide); and microscopic visualization. SRB was performed by staining cells with 0.1% sulforhodamine B after fixation with 10% TCA, and reading wells at 560 nm. PBMC viability was assessed by adding propidium iodide (10 mg/ml) to PBMC that had been cultured for 24 hours in the presence of activators and measuring the percentage of cells that incorporated dye by flow cytometry after 10 minutes. For data analysis, mean OD values (or other measurements) for each parameter were calculated from triplicate samples per experiment. The mean value obtained for each parameter in a treated sample was then divided by the mean value from an appropriate control to generate a ratio. All ratios were then log 10 transformed. An average or “trusted” profile was created by averaging 2 repeats of the experiment for each compound and concentration combination. 99% prediction envelopes (grey shading in Figures) were calculated for historical controls.

[6] = test system: heart transplant patients; conditions: cited from earlier work
Macrophages + HUVEC = experiment: BioMAP Mphg system (macrophages + endothelial cells + Zymosan); assay type: cell-based, human
Experimental: Macrophages, are generated from human peripheral blood mononuclear cells. Human peripheral blood mononuclear cells are isolated from blood by Ficoll-hypaque density gradient centrifugation as described (Ponath, JEM 183:2437, 1996). Monocytes are then isolated by negative selection using the Monocyte Isolation Kit II (Miltenyi Biotec, Germany) MACS beads according to the manufacturer's instructions. Alternatively, 10×10^6 peripheral blood mononuclear cells/ml are cultured in RPMI containing 10% fetal bovine serum for 3 hours and non-adherent lymphocytes are removed by gentle washing. The following are then applied for 7 to 8 days: MCSF (50 ng/ml) alone, or MCSF+one of the following cytokines, IL-4 (20 ng/ml), IL-6 (20 ng/ml), IFN-gamma (10 ng/ml), or GM-CSF (10 ng/ml)+IL-4 (20 ng/ml). To generate foam cells, the culture media is replaced with media containing 40% autologous serum or 40% Human AB Serum male (Cambrex Bioproducts) in RPMI+MCSF 50 ng/ml for an additional 4 to 5 days. Cells are harvested and resuspended to 10^6 cells/ml and added to confluent endothelial cells. Primary human umbilical vein endothelial cells (HUVEC) are used. Other cells that may replace HUVEC in the screen include primary microvascular endothelial cells, aortic or arteriolar endothelial cells. 7.5×10^4 cells/ml are cultured to confluence in EGM-2 (Clonetics). […]

[7] = test system: Primary human umbilical artery smooth muscle cells (UASMC); experiment: BioMAP SM3C system (smooth muscle cells + IL-1 + TNF-a + IFNg); assay type: cell-based
Experimental: Primary human umbilical artery smooth muscle cells (UASMC) are used. Other cells that may replace UASMC in the screen include primary aortic, bronchial, coronary artery or pulmonary artery smooth muscle cells. Other muscle cells of interest include skeletal muscle cells and cardiomyocytes. Passage 5-7 cells are used for the screen. 4×10^4 cells/ml are cultured to 100% confluence on CellBind plates (Costar) in SmGM-2 (Clonetics) containing 5% FBS. In some cases, SmGM-2 may be removed 24 hours before screen, and replaced with serum-free SmBM basal media (Clonetics) supplemented with insulin. The following are then applied for 24 hours: Factors include a combination of IL-4 (5 ng/ml), and histamine (HIS) (10 μM) or a combination of IL-1 (1 ng/ml), TNF-a (5 ng/ml) and IFNg (20 ng/ml) (SM3C) and/or thrombin (10 units/ml) for 6 and/or 24 hours. Standard concentrations of agents are employed as described in the literature. Other factors of interest include: IL-6, LPS, endothelin-1 and angiotensin II. Based on the parameters altered by the indicated factors, BioMAPs are generated for the parameters VCAM, HLA-DR, IL-8, MCP-1, Thrombomodulin, tissue factor, LDL-receptor and uPAR. […]

[8] = protein level drug-treated versus buffer control, 24 h

S=C([S-])OC1CC2CC1C1CCCC21.[K+] (stereo not drawn) [D609]
CD69 level [1]: downregulation | E-selectin level [1]: upregulation | IL-8 level [1]: upregulation

CCCCCCCCCCCCCCCCCCOCC(COP(=O)([O-])OCC[N+](C)(C)C)OC (stereo not drawn) [ET-18-OCH3]
CD69 level [1]: downregulation | E-selectin level [1]: upregulation | IL-8 level [1]: upregulation

CC(C)c1c(C(=O)Nc2ccccc2)c(-c2ccccc2)c(-c2ccc(F)cc2)n1CC[C@@H](O)C[C@@H](O)CC(=O)O [atorvastatin]
uPAR level [2]: significant decreases | BioMAP profile compared with the lovastatin profile [3]: induce the same BioMAP profile | Eotaxin-3 level [4]: increases | MCP-1 level [4]: significant decreases

COCc1c(C(C)C)nc(C(C)C)c(/C=C/[C@@H](O)C[C@@H](O)CC(=O)O)c1-c1ccc(F)cc1 [cerevistatin]
BioMAP profile compared with the lovastatin profile [3]: induce the same BioMAP profile

CC[C@H](C)C(=O)O[C@H]1C[C@@H](C)C=C2C=C[C@H](C)[C@H](CC[C@@H]3C[C@@H](O)CC(=O)O3)[C@H]21 [lovastatin]
uPAR level [2]: significant decreases | Eotaxin-3 level [4]: increases | MCP-1 level [4]: significant decreases | IL-1alpha level [5, 8]: significant decreases | M-CSF level [5, 8]: increases | tissue factor level [5, 8]: increases

CC[C@H](C)C(=O)O[C@H]1CCC=C2C=C[C@H](C)[C@H](CC[C@@H]3C[C@@H](O)CC(=O)O3)[C@H]21 [mevastatin]
BioMAP profile compared with the lovastatin profile [3]: induce the same BioMAP profile

COc1c(C)c2c(c(O)c1C/C=C(\C)CCC(=O)O)C(=O)OC2 [mycophenolic acid]
MCP-1 level [1]: inhibition | long-term benefit against post-transplant vasculopathy [6]: protecting against post-transplant vasculopathy | MCP-1 level (Macrophages + HUVEC): inhibition | MCP-1 level [2]: inhibition | MCP-1 level [7]: inhibition | MCP-1 level [5]: inhibition
